Columns and labels:
MAPK14 (human) = MAPK14 (human) (UniProt Q16539); assay: Enzyme Assay
ROCK2 (human) = ROCK2 (human) (UniProt O75116); assay: Enzyme Assay
EGFR (human) = EGFR (human) (UniProt P00533)
CDK2 (human) = CDK2 (human) (UniProt P24941); assay: Enzyme Assay

Sequence of ROCK2 (human) (O75116 whole entry, looked up): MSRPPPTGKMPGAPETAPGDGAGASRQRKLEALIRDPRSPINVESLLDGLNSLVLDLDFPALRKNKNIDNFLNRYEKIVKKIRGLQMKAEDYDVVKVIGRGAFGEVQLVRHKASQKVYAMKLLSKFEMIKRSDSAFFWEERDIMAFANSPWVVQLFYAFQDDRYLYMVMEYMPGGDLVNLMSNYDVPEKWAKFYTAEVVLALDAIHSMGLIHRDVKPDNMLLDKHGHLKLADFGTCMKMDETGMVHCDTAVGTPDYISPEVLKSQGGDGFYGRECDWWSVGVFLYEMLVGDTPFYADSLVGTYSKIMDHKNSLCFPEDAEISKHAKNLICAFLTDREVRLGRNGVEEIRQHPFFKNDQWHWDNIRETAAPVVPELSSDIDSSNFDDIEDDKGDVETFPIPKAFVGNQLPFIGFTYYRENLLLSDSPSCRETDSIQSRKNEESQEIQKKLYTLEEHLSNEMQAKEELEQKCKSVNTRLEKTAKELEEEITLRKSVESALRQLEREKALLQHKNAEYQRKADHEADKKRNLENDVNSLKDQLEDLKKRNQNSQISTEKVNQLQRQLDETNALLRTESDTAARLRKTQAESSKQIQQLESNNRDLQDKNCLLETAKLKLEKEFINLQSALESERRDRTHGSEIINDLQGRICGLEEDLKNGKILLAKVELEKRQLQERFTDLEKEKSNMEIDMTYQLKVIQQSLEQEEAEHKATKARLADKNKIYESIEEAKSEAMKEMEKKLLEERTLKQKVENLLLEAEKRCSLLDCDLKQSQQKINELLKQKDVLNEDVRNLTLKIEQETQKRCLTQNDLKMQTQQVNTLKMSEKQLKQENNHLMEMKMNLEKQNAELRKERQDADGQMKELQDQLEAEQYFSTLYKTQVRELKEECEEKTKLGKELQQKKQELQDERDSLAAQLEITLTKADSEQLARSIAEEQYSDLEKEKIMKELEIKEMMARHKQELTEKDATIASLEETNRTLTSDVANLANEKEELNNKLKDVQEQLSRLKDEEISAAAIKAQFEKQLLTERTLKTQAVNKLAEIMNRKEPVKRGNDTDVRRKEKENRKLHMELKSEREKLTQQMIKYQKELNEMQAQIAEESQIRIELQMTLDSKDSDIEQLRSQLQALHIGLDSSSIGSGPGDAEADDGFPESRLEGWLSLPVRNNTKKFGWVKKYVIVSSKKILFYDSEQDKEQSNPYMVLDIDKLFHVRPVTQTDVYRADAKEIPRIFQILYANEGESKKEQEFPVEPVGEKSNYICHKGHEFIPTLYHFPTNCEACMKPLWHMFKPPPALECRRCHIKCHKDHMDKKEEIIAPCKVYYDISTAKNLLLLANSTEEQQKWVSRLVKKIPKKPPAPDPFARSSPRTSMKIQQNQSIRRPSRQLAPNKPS
Sequence of MAPK14 (human) (Q16539 whole entry, looked up): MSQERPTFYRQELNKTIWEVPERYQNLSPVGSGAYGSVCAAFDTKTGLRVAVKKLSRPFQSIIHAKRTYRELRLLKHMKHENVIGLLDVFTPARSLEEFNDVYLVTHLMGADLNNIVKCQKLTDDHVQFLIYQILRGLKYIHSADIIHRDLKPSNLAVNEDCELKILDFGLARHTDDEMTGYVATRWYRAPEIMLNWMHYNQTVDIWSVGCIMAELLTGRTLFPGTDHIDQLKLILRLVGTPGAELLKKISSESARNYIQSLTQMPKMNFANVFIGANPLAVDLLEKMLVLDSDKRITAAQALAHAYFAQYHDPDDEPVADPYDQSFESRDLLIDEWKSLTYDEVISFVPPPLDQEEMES
Sequence of EGFR (human) (P00533 whole entry, looked up): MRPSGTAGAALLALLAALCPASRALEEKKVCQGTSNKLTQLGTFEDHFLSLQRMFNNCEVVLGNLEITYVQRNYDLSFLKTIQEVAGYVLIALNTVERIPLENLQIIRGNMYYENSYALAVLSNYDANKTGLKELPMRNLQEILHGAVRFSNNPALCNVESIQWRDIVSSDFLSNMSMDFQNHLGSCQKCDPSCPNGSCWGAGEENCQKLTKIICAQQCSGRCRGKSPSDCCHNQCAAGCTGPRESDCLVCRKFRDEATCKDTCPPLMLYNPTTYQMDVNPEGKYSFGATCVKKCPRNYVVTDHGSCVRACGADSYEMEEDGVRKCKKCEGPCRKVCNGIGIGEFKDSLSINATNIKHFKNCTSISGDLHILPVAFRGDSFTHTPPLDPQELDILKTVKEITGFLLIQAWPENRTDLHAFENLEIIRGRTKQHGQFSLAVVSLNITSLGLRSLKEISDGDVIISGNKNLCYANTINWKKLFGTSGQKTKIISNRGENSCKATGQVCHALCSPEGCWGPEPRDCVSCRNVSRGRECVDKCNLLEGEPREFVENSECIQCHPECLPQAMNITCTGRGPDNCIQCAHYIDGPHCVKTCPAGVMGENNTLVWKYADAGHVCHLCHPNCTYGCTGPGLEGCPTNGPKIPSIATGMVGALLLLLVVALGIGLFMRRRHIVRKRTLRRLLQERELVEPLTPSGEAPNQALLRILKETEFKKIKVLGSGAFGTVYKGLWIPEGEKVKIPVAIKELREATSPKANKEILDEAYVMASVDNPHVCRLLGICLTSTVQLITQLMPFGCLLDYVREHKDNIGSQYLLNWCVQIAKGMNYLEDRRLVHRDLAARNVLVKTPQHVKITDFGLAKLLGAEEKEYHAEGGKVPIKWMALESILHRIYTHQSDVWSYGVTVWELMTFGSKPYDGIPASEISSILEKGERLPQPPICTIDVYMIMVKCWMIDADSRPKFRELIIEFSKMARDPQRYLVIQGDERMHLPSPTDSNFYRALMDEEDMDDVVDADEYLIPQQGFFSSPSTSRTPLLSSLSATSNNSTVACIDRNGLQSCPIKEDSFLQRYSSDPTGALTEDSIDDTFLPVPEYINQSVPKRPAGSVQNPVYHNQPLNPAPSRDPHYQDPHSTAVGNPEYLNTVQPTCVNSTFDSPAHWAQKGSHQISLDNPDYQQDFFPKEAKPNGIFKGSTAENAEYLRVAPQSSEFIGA

Row | Compound | Ki (MAPK14 (human)) [nM] | Ki (ROCK2 (human)) [nM] | Ki (EGFR (human)) [nM] | Ki (CDK2 (human)) [nM]
1 | COc1c(-c2nc3ccccc3[nH]2)c(O)cc2oc(C)cc(=O)c12 | 3980 | – | – | –
2 | Cc1cc(=O)[nH]c2[nH]nc(-c3cccc(C(F)(F)F)c3)c12 | 398 | – | – | –
3 | COc1cc2ncn(-c3cc(OCc4ccccc4C(F)(F)F)c(C(N)=O)s3)c2cc1OC | – | > 7940 | 251 | –
4 | NC(=O)c1ccc2nc(-c3ccc([N+](=O)[O-])o3)cn2c1 | 3160 | – | – | –
5 | CC(C)(C)c1cc(NC(=O)Nc2cccc3ccccc23)n(-c2cccc(C(=O)N(CCN)CCO)c2)n1 | 631 | – | – | –
6 | Fc1cccc(CNc2ncnc3[nH]cnc23)c1 | 15800 | – | – | –
7 | c1ccc(-c2ncc3ccccn23)cc1 | 50100 | – | – | –
8 | Cc1n[nH]c2ccc(-c3cncc(OCCNS(C)(=O)=O)c3)cc12 | – | 158 | – | 316
9 | Cc1ccc(-c2cc(-c3cc(Br)ccc3O)[nH]c(=O)c2C#N)s1 | 2510 | – | – | –
10 | CCC(=O)Nc1ccc(C(=O)N2CCNCC2)c(O)c1 | 1000 | – | – | –
11 | CC(=O)n1ncc2cc(N)ccc21 | 7940 | – | – | –
12 | CCN(CCN(C)C)C(=O)c1cccc(-n2nc(C(C)(C)C)cc2NC(=O)Nc2cccc3ccccc23)c1 | 794 | – | – | –
13 | COc1ccc(C2=NNc3cccc4c(OC)ccc2c34)cc1OC | 501 | – | – | –
14 | COCCNc1cc(-c2c[nH]c3ncccc23)cc(Cl)n1 | – | 5.01 | – | 251
15 | Clc1cc(-c2c[nH]c3ncccc23)nc(NC2CCCCC2)n1 | – | 126 | – | 200
16 | NCCCn1cc(-c2cc(-c3cc4ccccc4s3)c3[nH]ncc3c2)c2nc(N)ncc21 | – | 63.1 | – | 12.6
17 | Cc1ccc2nccc(NC(=O)Nc3cccc(C(F)(F)F)n3)c2c1 | – | > 6310 | – | 79.4
18 | CN(C)c1cc(-c2ccncc2)cc2[nH]nc(N)c12 | – | 79.4 | – | 631
19 | O=C(Cc1cccs1)Nc1nc2ccccc2s1 | 3980 | – | – | –
20 | CCCCNc1cc(-c2ccncc2)cc2[nH]nc(N)c12 | – | 63.1 | – | 200
21 | C=CCNc1cc(-c2c[nH]c3ncccc23)cc(Cl)n1 | – | 12.6 | – | 100

Other lines, results leading:

Row | Ki (MAPK14 (human)) [nM] | Ki (ROCK2 (human)) [nM] | Ki (EGFR (human)) [nM] | Ki (CDK2 (human)) [nM] | Compound
22 | 631 | – | – | – | CC(C)(C)c1cc(NC(=O)C(=O)c2cccc3ccccc23)n(-c2ccc(OCC(=O)NCCO)cc2)n1
23 | 2510 | – | – | – | CC(C)(C)c1cc(NC(=O)c2cc3ccccc3s2)n(-c2ccc(OCC(=O)O)cc2)n1
24 | 794 | – | – | – | CC(C)(C)c1cc(NC(=O)c2cc3ccccc3s2)n(-c2cccc(OCC(=O)O)c2)n1
25 | 631 | – | – | – | CC(C)(C)c1cc(NC(=O)C(=O)c2cccc3ccccc23)n(-c2ccc(OCCC(N)=O)cc2)n1
26 | 2510 | – | – | – | Nc1ccc2cc(NCCc3ccccc3)cc(Nc3ncccn3)c2n1
27 | 794 | – | – | – | CC(C)CC(NC(=O)c1cccc(-n2nc(C(C)(C)C)cc2NC(=O)Nc2cccc3ccccc23)c1)C(N)=O (centres undefined)
28 | 100 | – | – | – | Cc1cc(=O)[nH]nc1-c1ccc(NC(=O)Nc2cc(C(F)(F)F)ccc2F)c(Cl)c1
29 | – | > 7940 | – | 398 | Cc1ccc(Nc2nccc(Nc3ccccc3C(=O)O)n2)cc1F
30 | – | > 5010 | – | 25.1 | O=C(Nc1n[nH]c2ccc(-c3cn(Cc4ccccc4)nn3)cc12)c1cc(F)ccc1F
31 | – | > 7940 | – | 126 | CN1CCN(c2nc(C3=C(c4c[nH]c5ccccc45)C(=O)NC3=O)c3ccccc3n2)CC1
32 | – | 12.6 | – | 39.8 | Cc1cccc(CNc2cc(-c3c[nH]c4ncccc34)ncn2)c1
33 | – | 31.6 | – | 3980 | CCOC(=O)c1cn(-c2ccc(O)cc2C)c2cc(-c3ccncc3)ccc2c1=O
34 | 3160 | > 1000 | – | – | O=C(Nc1cc(-c2c[nH]c3ncccc23)cc(Cl)n1)c1ccccc1
35 | – | 316 | – | 398 | NC(=O)Cn1cc(-c2cc(-c3cc4ccccc4s3)c3[nH]ncc3c2)c2nc(N)ncc21
36 | – | 3160 | – | 79.4 | O=C1c2ccccc2-c2n[nH]c3cccc1c23
37 | – | 794 | – | 794 | O=c1cc(-c2ccncc2)nc(NCc2cc(F)cc(F)c2)[nH]1
38 | – | 20 | – | 79.4 | Nc1n[nH]c2ccc(-c3nnn(Cc4ccccc4)c3C3CC3)cc12
39 | – | 63.1 | – | 100 | c1ccc(Cn2cc(-c3ccc4[nH]nc(-c5ccccc5)c4c3)nn2)cc1

— the Kinase Knowledgebase extract (Sharma et al. 2016)
